Measurements taken from article PMC5877551, “Structure-Activity Relationships of Thiazolyl Resorcinols, Potent and Selective Inhibitors of Human Tyrosinase” (International Journal of Molecular Sciences, 2018).

Columns and labels:
[1] = molecular target: T1, human tyrosinase (hTyr) (Homo sapiens, UniProt P14679); assay: L-Dopa oxidase activity of hTyr, dose-response profiles (MBTH assay); assay type: biochemical; parameters: A truncated, His-tagged form of hTyr (hTyr-DHis) was expressed in HEK 293 cells; His tag; made in house; host or cells: HEK 293 cells; details: for EC50: dopa oxidase activity of hTyr, 1 mM L-Dopa, phosphate buffer pH 7.0, 37 °C, values above 3 mM given as >3000; for inhibition of hTyr, result in words: comparison of EC50 values; for factor by which inhibitory activity is impaired when thiazole is replaced by another ring: versus the corresponding thiazole compound (W547, W548)
T1 sequence (P14679 19-476 limits assumed): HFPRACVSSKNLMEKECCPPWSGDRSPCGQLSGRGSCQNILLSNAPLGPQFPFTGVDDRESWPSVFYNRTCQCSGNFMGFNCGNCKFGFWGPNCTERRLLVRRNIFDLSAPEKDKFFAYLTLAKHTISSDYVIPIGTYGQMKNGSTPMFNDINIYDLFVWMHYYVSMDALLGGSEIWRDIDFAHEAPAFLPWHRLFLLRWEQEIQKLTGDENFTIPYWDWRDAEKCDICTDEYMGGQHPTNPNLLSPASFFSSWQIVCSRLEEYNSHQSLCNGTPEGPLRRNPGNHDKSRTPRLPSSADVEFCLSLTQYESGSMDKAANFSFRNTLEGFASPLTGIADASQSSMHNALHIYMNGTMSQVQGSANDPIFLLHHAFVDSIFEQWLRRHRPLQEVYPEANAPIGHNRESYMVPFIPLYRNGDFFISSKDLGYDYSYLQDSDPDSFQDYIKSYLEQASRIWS
Procedure: A truncated, His-tagged form of hTyr (hTyr-DHis) was expressed in HEK 293 cells and purified by metal affinity chromatography on Ni^2+-Sepharose as described by Cordes et al..
The L-Dopa oxidase activity of hTyr was assayed by a modification of the method of Winder and Harris. In this assay, the reaction product, L-dopaquinone, is trapped by MBTH (3-methyl-2-benzothiazoline hydrazone) to yield a stable pink dye that can be quantified at 490 nm. Reaction mixtures in 100 mM phosphate buffer, pH 7.0, were set up in microtiter plates together with appropriate blanks to account for nonenzymatic oxidation of substrate and product. After thermal equilibration at 37 °C for 10 min, the reactions were started by adding enzyme and monitored for 10–20 min at 490 nm. Absorption values were read at 15 s intervals and digitally stored for later analysis. Dose-response curves were obtained by testing various concentrations of each inhibitor in triplicate at a fixed substrate (L-Dopa) concentration of 1 mM.

[2] = molecular target: T1, human tyrosinase (hTyr); details: in vitro; cited from earlier work

CCCCCCc1ccc(O)cc1O [W072, 4-hexylresorcinol, reference compound]
EC50 [1]: 93 ± 21 µM

OCCCCCCNc1nc(-c2ccc(O)cc2O)cs1 [W692]
EC50 [1]: 6.9 ± 0.2 µM

CCCCc1ccc(O)cc1O [W039, 4-butylresorcinol, reference compound]
EC50 [1]: 21 ± 4 µM

O=C(Cc1ccc(CO)cc1)Nc1nc(-c2ccc(O)cc2O)cs1 [W696]
EC50 [1]: 6.5 ± 0.2 µM

O=C(O)c1ccc(Nc2nc(-c3ccc(O)cc3O)cs2)cc1 [W529]
EC50 [1]: 2.6 ± 0.1 µM

CC(C)(C)Nc1nc(-c2ccc(O)cc2O)cs1 [W534]
EC50 [1]: 25 ± 1 µM

CCCCc1ccc(O)c(C)c1O [W639]
inhibition of hTyr, result in words [1]: markedly impaired inhibition | EC50 [1]: 220 ± 10 µM

OCc1ccc(Nc2nc(-c3ccc(O)cc3O)cs2)cc1 [W693]
EC50 [1]: 5.7 ± 0.2 µM

CC(C)(C)C(=O)Nc1nc(-c2ccc(O)cc2O)cs1 [W687]
EC50 [1]: 1.4 ± 0.1 µM

OCCc1ccc(O)cc1O [W785]
inhibition of hTyr, result in words [1]: markedly impaired inhibition | EC50 [1]: 560 ± 90 µM

O=C(Nc1cccc(-c2ccc(O)cc2O)c1)C1CCCCC1 [W632]
EC50 [1]: > 3000 µM | factor by which inhibitory activity is impaired when thiazole is replaced by another ring [1]: at least 200

CCCNc1nc(-c2ccc(O)cc2O)cs1 [W538]
EC50 [1]: 5.6 ± 1.4 µM

CC(C)C(=O)Nc1nc(-c2ccc(O)cc2O)cs1 [W630, Thiamidol]
EC50 [1]: 1.1 ± 0.1 µM

Cc1sc(NC(=O)C2CCCCC2)nc1-c1ccc(O)cc1O [W625]
inhibition of hTyr, result in words [1]: abolished inhibition altogether | EC50 [1]: > 3000 µM

OC[C@H]1O[C@@H](Oc2ccc(O)cc2)[C@H](O)[C@@H](O)[C@@H]1O [arbutin]
hTyr inhibition compared with thiazolyl resorcinols, in words [2]: clearly inferior to thiazolyl resorcinols

Oc1ccc(-c2csc(Nc3ccccc3)n2)c(O)c1 [W367]
EC50 [1]: 10 ± 1 µM

CCCC(=O)Nc1nc(-c2cc(CCC)c(O)cc2O)cs1 [W681]
inhibition of hTyr, result in words [1]: abolished inhibition altogether | EC50 [1]: > 3000 µM

Oc1cccc(O)c1 [W089, resorcinol]
EC50 [1]: > 3000 µM

O=C(NC1CCCCC1)c1csc(-c2ccc(O)cc2O)n1 [W701]
inhibition of hTyr, result in words [1]: abolishes activity | EC50 [1]: > 3000 µM

O=C(Nc1nc(-c2ccc(O)cc2O)cs1)C1CCCCC1 [W548]
EC50 [1]: 4.6 ± 0.2 µM

CC(C)(C)c1ccc(C(=O)Nc2nc(-c3ccc(O)cc3O)cs2)cc1 [W669]
inhibition of hTyr, result in words [1]: markedly impair inhibition | EC50 [1]: 81 ± 5 µM

CCCCCCNc1nc(-c2ccc(O)cc2O)cs1 [W688]
EC50 [1]: 60 ± 2 µM

O=C(Nc1nc(-c2ccc(O)cc2O)cs1)c1ccc(CO)cc1 [W619]
EC50 [1]: 1.6 ± 0.4 µM

O=C(O)c1ccc(Nc2nc(-c3ccc(O)cc3O)cs2)cc1O [W570]
EC50 [1]: 3.5 ± 0.1 µM

CC(C)Nc1nc(-c2ccc(O)cc2O)cs1 [W533]
EC50 [1]: 6.2 ± 0.2 µM

CN(c1nc(-c2ccc(O)cc2O)cs1)C1CCCCC1 [W646]
inhibition of hTyr, result in words [1]: only moderately reduced inhibitory activity | EC50 [1]: 40 ± 2 µM

Cc1cc(C)cc(Nc2nc(-c3ccc(O)cc3O)cs2)c1 [W537]
inhibition of hTyr, result in words [1]: markedly impair inhibition | EC50 [1]: 160 ± 2 µM

Oc1ccc(Nc2nc(-c3ccc(O)cc3O)cs2)cc1 [W542]
EC50 [1]: 9.8 ± 0.3 µM

Oc1ccc(O)cc1 [hydroquinone]
hTyr inhibition compared with thiazolyl resorcinols, in words [2]: clearly inferior to thiazolyl resorcinols

O=C(Nc1nc(-c2ccc(O)cc2O)cs1)c1ccccc1 [W498]
EC50 [1]: 2.5 ± 0.1 µM

CNc1nc(-c2ccc(O)cc2O)cs1 [W366]
EC50 [1]: 33 ± 1 µM

CCCCCCC(=O)Nc1nc(-c2ccc(O)cc2O)cs1 [W695]
EC50 [1]: 15 ± 1 µM

Oc1ccc(-c2csc(Nc3ncccn3)n2)c(O)c1 [W311]
inhibition of hTyr, result in words [1]: mediates efficient inhibition | EC50 [1]: 3.2 ± 0.1 µM

Oc1cccc(-c2csc(Nc3ncccn3)n2)c1O [W568]
EC50 [1]: > 3000 µM

CCC(=O)Nc1nc(-c2ccc(O)cc2F)cs1 [W480]
EC50 [1]: > 3000 µM

Oc1ccc(-c2csc(NC3CCCCC3)n2)c(O)c1 [W694]
EC50 [1]: 16 ± 1 µM

O=C(NC1CCCCC1)c1nc(-c2ccc(O)cc2O)cs1 [W607]
inhibition of hTyr, result in words [1]: only moderately increases EC50 | EC50 [1]: 56 ± 3 µM

Oc1ccc(-c2csc(NCCc3ccccc3)n2)c(O)c1 [W496]
inhibition of hTyr, result in words [1]: markedly impair inhibition | EC50 [1]: 140 ± 6 µM

Oc1ccccc1-c1csc(Nc2ncccn2)n1 [W539]
EC50 [1]: > 3000 µM

CC(C)(O)c1ccc(C(=O)Nc2nc(-c3ccc(O)cc3O)cs2)cc1 [W680]
EC50 [1]: 3.2 ± 0.2 µM

CCCNc1nc(-c2cc(O)cc(O)c2)cs1 [W624]
EC50 [1]: > 3000 µM

CCCC(=O)Nc1nc(-c2ccc(O)cc2O)cs1 [W577]
EC50 [1]: 3.5 ± 0.5 µM

Oc1ccc(-c2csc(Nc3ncccn3)n2)cc1 [W452]
EC50 [1]: 19 ± 1 µM

CC(=O)Nc1nc(-c2ccc(O)cc2O)c[nH]1 [W633]
EC50 [1]: 750 ± 60 µM | factor by which inhibitory activity is impaired when thiazole is replaced by another ring [1]: at least 200

CN(C(=O)C1CCCCC1)c1nc(-c2ccc(O)cc2O)cs1 [W605]
inhibition of hTyr, result in words [1]: strongly | EC50 [1]: 1400 ± 160 µM

Nc1nc(-c2ccc(O)cc2O)cs1 [W495, 4-(2-amino-1,3-thiazol-4-yl) resorcinol]
EC50 [1]: 51 ± 2 µM

CC(=O)Nc1nc(-c2ccc(O)cc2O)cs1 [W547]
EC50 [1]: 3.2 ± 0.6 µM
